# Results reported in ChEMBL document CHEMBL1132014, “Novel 1,2,3,4-tetrahydroisoquinolines with high affinity and selectivity for the dopamine D3 receptor” (Bioorg Med Chem Lett, 1999).
# Legend:
# [1] = target: T1, D(2) dopamine receptor (Homo sapiens, UniProt P14416); assay: Displacement [125I]iodosulpiride from human Dopamine receptor D2 expressed in CHO cells; type: cell-based
# [2] = target: T2, D(3) dopamine receptor (Homo sapiens, UniProt P35462); assay: Displacement of [125I]iodosulpiride from human Dopamine receptor D3 expressed in CHO cells; type: cell-based
# [3] = Pharmacokinetic property (CLb)of the compound was determined in rat; type: ADME, organism-based; settings: blood, read-out: CLb
# [4] = target: T2, D(3) dopamine receptor; assay: In vitro functional antagonist effect by its affinity to bind to Dopamine receptor D3
# [5] = Pharmacokinetic property (blood clearance) in rat; type: ADME, organism-based
# [6] = target: T1, D(2) dopamine receptor; assay: In vitro functional antagonist effect by its affinity to bind to Dopamine receptor D2
# [7] = Half life in rat; type: ADME, organism-based; settings: in vivo
# T1 sequence (P14416 whole entry): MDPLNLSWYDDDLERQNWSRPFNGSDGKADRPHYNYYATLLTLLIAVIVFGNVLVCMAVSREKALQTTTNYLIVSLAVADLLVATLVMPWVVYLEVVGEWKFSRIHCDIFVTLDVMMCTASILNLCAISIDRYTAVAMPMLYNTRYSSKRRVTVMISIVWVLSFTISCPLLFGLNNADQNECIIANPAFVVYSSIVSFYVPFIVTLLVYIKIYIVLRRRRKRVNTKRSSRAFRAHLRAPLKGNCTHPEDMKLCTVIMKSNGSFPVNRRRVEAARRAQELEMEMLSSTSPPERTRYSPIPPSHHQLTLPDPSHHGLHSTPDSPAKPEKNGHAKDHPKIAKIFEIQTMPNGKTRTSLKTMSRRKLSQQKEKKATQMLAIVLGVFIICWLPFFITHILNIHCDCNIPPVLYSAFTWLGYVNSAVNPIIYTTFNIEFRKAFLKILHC
# T2 sequence (P35462 whole entry): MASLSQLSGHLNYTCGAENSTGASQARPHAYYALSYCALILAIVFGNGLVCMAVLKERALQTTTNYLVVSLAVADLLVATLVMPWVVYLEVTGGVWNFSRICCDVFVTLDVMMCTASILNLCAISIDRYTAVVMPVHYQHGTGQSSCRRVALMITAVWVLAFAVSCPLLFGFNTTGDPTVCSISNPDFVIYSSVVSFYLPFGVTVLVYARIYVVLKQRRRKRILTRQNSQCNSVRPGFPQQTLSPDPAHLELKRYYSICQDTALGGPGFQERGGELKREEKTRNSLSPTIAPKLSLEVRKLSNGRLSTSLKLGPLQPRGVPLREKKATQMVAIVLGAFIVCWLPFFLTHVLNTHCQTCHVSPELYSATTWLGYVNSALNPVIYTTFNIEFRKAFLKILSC
SMILES,Ki [1] [nM],Ki [2] [nM],further results
Cc1ccccc1-c1ccc(C(=O)NCCCCN2CCc3ccc(OS(=O)(=O)C(F)(F)F)cc3C2)cc1,1580,50.1,
O=C(NCCCCN1CCc2ccc(OS(=O)(=O)C(F)(F)F)cc2C1)c1ccc(-c2ccccc2)cc1,501,7.94,
CNC(=O)c1ccc(-c2ccc(C(=O)NCCCCN3CCc4ccc(OS(=O)(=O)C(F)(F)F)cc4C3)cc2)cc1,100,2.51,
CNC(=O)c1cccc(-c2ccc(C(=O)NCCCCN3CCc4ccc(OS(=O)(=O)C(F)(F)F)cc4C3)cc2)c1,126,2,
O=C(NCCCCN1CCc2ccc(OS(=O)(=O)C(F)(F)F)cc2C1)c1cccc(-c2ccccc2)c1,501,126,
O=C(/C=C/c1ccc2ccccc2n1)NCCCCN1CCc2ccc(OS(=O)(=O)C(F)(F)F)cc2C1,398,3.98,
CCCN(CCCCNC(=O)c1ccc(-c2ccccc2)cc1)C1CCc2c(Cl)cccc2C1 (stereo unspecified),,,clearance [3]: 80 mL/min/kg
CC(=O)c1ccc(-c2ccc(C(=O)NCCCCN3CCc4ccc(OS(=O)(=O)C(F)(F)F)cc4C3)cc2)cc1,200,2.51,
O=C(/C=C/c1c[nH]c2ccccc12)NCCCCN1CCc2ccc(OS(=O)(=O)C(F)(F)F)cc2C1,631,3.98,pKb [4]: 8.9; clearance [5]: 27 mL/min/kg; pKb [6]: 6.6; half-life [7]: 2.5 h
O=C(NCCCCN1CCc2ccccc2C1)c1ccc(-c2ccccc2)cc1,501,25.1,clearance [3]: 20 mL/min/kg
Cc1nnc(-c2ccc(-c3ccc(C(=O)NCCCCN4CCc5ccc(OS(=O)(=O)C(F)(F)F)cc5C4)cc3)cc2)o1,100,2,
Cc1cc(C(=O)NCCCCN2CCc3ccc(OS(=O)(=O)C(F)(F)F)cc3C2)ccc1-c1ccccc1,1000,50.1,
O=C(NCCCCN1CCc2ccc(OS(=O)(=O)C(F)(F)F)cc2C1)c1ccc(-c2ccc(N3CCCC3=O)cc2)cc1,126,2.51,

# Further lines, with some results ahead:
Ki [1] [nM],Ki [2] [nM],SMILES,further results
316,39.8,O=C(/C=C\c1ccccc1)NCCCCN1CCc2ccc(OS(=O)(=O)C(F)(F)F)cc2C1,
398,3.98,CC(=O)c1cccc(/C=C/C(=O)NCCCCN2CCc3ccc(OS(=O)(=O)C(F)(F)F)cc3C2)c1,
1000,5.01,O=C(/C=C/c1ccc2ccccc2c1)NCCCCN1CCc2ccc(OS(=O)(=O)C(F)(F)F)cc2C1,
316,10,Cn1c(=O)ccc2cc(/C=C/C(=O)NCCCCN3CCc4ccc(OS(=O)(=O)C(F)(F)F)cc4C3)ccc21,
200,2,O=C(/C=C/c1ccc2[nH]ccc2c1)NCCCCN1CCc2ccc(OS(=O)(=O)C(F)(F)F)cc2C1,
251,3.98,CC(=O)c1ccc(/C=C/C(=O)NCCCCN2CCc3ccc(OS(=O)(=O)C(F)(F)F)cc3C2)cc1,
316,3.98,COc1ccc(/C=C/C(=O)NCCCCN2CCc3ccc(OS(=O)(=O)C(F)(F)F)cc3C2)cc1,
316,3.98,O=C(/C=C/c1cnc2ccccc2c1)NCCCCN1CCc2ccc(OS(=O)(=O)C(F)(F)F)cc2C1,
316,3.16,COc1cccc(/C=C/C(=O)NCCCCN2CCc3ccc(OS(=O)(=O)C(F)(F)F)cc3C2)c1,
501,3.98,CN(C)c1ccc(/C=C/C(=O)NCCCCN2CCc3ccc(OS(=O)(=O)C(F)(F)F)cc3C2)cc1,
316,5.01,O=C(/C=C/c1ccccc1)NCCCCN1CCc2ccc(OS(=O)(=O)C(F)(F)F)cc2C1,
251,3.16,O=C(/C=C/c1ccc2ncccc2c1)NCCCCN1CCc2ccc(OS(=O)(=O)C(F)(F)F)cc2C1,
158,2.51,O=C(/C=C/c1ccc2nc(O)ccc2c1)NCCCCN1CCc2ccc(OS(=O)(=O)C(F)(F)F)cc2C1,
